Assay results published in paper PMC9907135 (Proceedings of the National Academy of Sciences of the …, 2022).
Bridge positions count the residues as written; N and C are the ends. Square brackets hold non-standard residues; d marks the D form. Peptide text beside a SMILES is read from it. R8 = C=CCCCCCC[C@@](C)(N)C(=O)O; S5 = C=CCCC[C@](C)(N)C(=O)O; Nle = CCCC[C@H](N)C(=O)O

Columns and labels:
[1] = tested on: Expi293 cells; settings: percentage of Helicons in cells after treatment and wash; Expi293 cells 1x10^6 cells/mL, 22 hours, 37°C; washed twice with DPBS; MS quantitation, single-point calibration; n=2, mean ± SD
[2] = tested on: Expi293 cells; settings: luminescence at Tfinal (22 hours) divided by Tinitial, measure of ATP levels, reflective of cell health

SMILES | Helicon in cells ± SD (%) [1] [%] | CellTiter-Glo fold change ± SD [2]
CC(=O)N[C@@H](CC(C)C)C(=O)N[C@H](C(=O)N[C@@H](Cc1ccccc1)C(=O)N[C@]1(C)CCCCCCC=CCCC[C@@](C)(C(=O)N[C@@H](CO)C(=O)N[C@@H](C)C(=O)N[C@@H](C)C(N)=O)NC(=O)[C@H](CC2CCC2)NC(=O)[C@H](CCC(N)=O)NC(=O)[C@H](C)NC(=O)[C@H](Cc2c[nH]c3ccccc23)NC(=O)[C@H](Cc2ccc(O)cc2)NC(=O)[C@H](CCC(=O)O)NC1=O)[C@@H](C)O [FP01413, reference compound] | 3.7 ± 0.4 | 1.2 ± 0.07
CCCC[C@H](NC(=O)[C@@H](NC(C)=O)C(C)C)C(=O)N[C@@H](CCC(=O)O)C(=O)N[C@]1(C)CCCCCCC=CCCC[C@@](C)(C(=O)N[C@@H](Cc2c[nH]cn2)C(=O)N[C@@H](Cc2ccc(O)cc2)C(=O)N[C@H](C(N)=O)C(C)C)NC(=O)[C@H]([C@@H](C)CC)NC(=O)[C@H](Cc2ccccc2)NC(=O)[C@H](C)NC(=O)[C@H](C)NC(=O)[C@H](CCC(=O)O)NC(=O)[C@H](Cc2ccc(O)cc2)NC1=O [FP07855] (Ac-V[Nle]E[R8]YEAAFI[S5]HYV-NH2; staple 4-11) | 16.4 ± 0.6 | 1.2 ± 0.10
CCCC[C@H](NC(=O)[C@@H](NC(C)=O)C(C)C)C(=O)N[C@@H](CCC(=O)O)C(=O)N[C@]1(C)CCCCCCC=CCCC[C@@](C)(C(=O)N[C@@H](Cc2c[nH]cn2)C(=O)N[C@@H](Cc2ccc(O)cc2)C(=O)N[C@H](C(N)=O)C(C)C)NC(=O)[C@H]([C@@H](C)CC)NC(=O)[C@H](Cc2ccccc2)NC(=O)[C@H](C)NC(=O)[C@H](C)NC(=O)[C@H](CCC(=O)O)NC(=O)[C@H](Cc2ccc(O)cc2)NC1=O [FP07856] (Ac-V[Nle]E[R8]YEAAFI[S5]HYV-NH2; staple 4-11) | 15.5 ± 0.9 | 1.3 ± 0.12
CC[C@H](C)[C@H](NC(C)=O)C(=O)N[C@@H](CC(C)C)C(=O)N[C@@H](CCC(N)=O)C(=O)N[C@]1(C)CCCCCCC=CCCC[C@@](C)(C(=O)N[C@@H](Cc2c[nH]cn2)C(=O)N[C@@H](Cc2ccc(O)cc2)C(=O)N[C@@H](CCC(N)=O)C(N)=O)NC(=O)[C@H](CO)NC(=O)[C@H](Cc2ccccc2)NC(=O)[C@H](C)NC(=O)[C@H](C)NC(=O)[C@H](CCC(=O)O)NC(=O)[C@H](Cc2ccc(O)cc2)NC1=O [FP07859] (Ac-ILQ[R8]YEAAFS[S5]HYQ-NH2; staple 4-11) | 0.1 ± 0.0 | 1.2 ± 0.02
CC[C@H](C)[C@H](NC(C)=O)C(=O)N[C@@H](CC(C)C)C(=O)N[C@@H](CCC(N)=O)C(=O)N[C@]1(C)CCCCCCC=CCCC[C@@](C)(C(=O)N[C@@H](Cc2c[nH]cn2)C(=O)N[C@@H](Cc2ccc(O)cc2)C(=O)N[C@@H](CCC(N)=O)C(N)=O)NC(=O)[C@H](CO)NC(=O)[C@H](Cc2ccccc2)NC(=O)[C@H](C)NC(=O)[C@H](C)NC(=O)[C@H](CCC(=O)O)NC(=O)[C@H](Cc2ccc(O)cc2)NC1=O [FP07860] (Ac-ILQ[R8]YEAAFS[S5]HYQ-NH2; staple 4-11) | 0.3 ± 0.0 | 1.2 ± 0.03
CCCC[C@H](NC(=O)[C@@H](NC(C)=O)C(C)C)C(=O)N[C@@H](CCC(N)=O)C(=O)N[C@]1(C)CCCCCCC=CCCC[C@@](C)(C(=O)N[C@@H](Cc2c[nH]cn2)C(=O)N[C@@H](Cc2ccc(O)cc2)C(=O)N[C@H](C(N)=O)C(C)C)NC(=O)[C@H]([C@@H](C)CC)NC(=O)[C@H](Cc2ccccc2)NC(=O)[C@H](C)NC(=O)[C@H](C)NC(=O)[C@H](CCC(=O)O)NC(=O)[C@H](Cc2ccc(O)cc2)NC1=O [FP07863] (Ac-V[Nle]Q[R8]YEAAFI[S5]HYV-NH2; staple 4-11) | 23.5 ± 6.5 | 1.2 ± 0.02
CCCC[C@H](NC(=O)[C@@H](NC(C)=O)C(C)C)C(=O)N[C@@H](CCC(N)=O)C(=O)N[C@]1(C)CCCCCCC=CCCC[C@@](C)(C(=O)N[C@@H](Cc2c[nH]cn2)C(=O)N[C@@H](Cc2ccc(O)cc2)C(=O)N[C@H](C(N)=O)C(C)C)NC(=O)[C@H]([C@@H](C)CC)NC(=O)[C@H](Cc2ccccc2)NC(=O)[C@H](C)NC(=O)[C@H](C)NC(=O)[C@H](CCC(=O)O)NC(=O)[C@H](Cc2ccc(O)cc2)NC1=O [FP07864] (Ac-V[Nle]Q[R8]YEAAFI[S5]HYV-NH2; staple 4-11) | 18.5 ± 11.4 | 1.1 ± 0.05
CCCC[C@H](NC(=O)[C@@H](NC(C)=O)C(C)C)C(=O)N[C@@H](CCC(=O)O)C(=O)N[C@]1(C)CCCCCCC=CCCC[C@@](C)(C(=O)N[C@@H](Cc2c[nH]cn2)C(=O)N[C@@H](Cc2ccc(O)cc2)C(=O)N[C@H](C(N)=O)C(C)C)NC(=O)[C@H]([C@@H](C)CC)NC(=O)[C@H](Cc2ccccc2)NC(=O)[C@H](C)NC(=O)[C@H](C)NC(=O)[C@H](CCC(N)=O)NC(=O)[C@H](Cc2ccc(O)cc2)NC1=O [FP07867] (Ac-V[Nle]E[R8]YQAAFI[S5]HYV-NH2; staple 4-11) | 8.6 ± 0.4 | 1.2 ± 0.03
CCCC[C@H](NC(=O)[C@@H](NC(C)=O)C(C)C)C(=O)N[C@@H](CCC(=O)O)C(=O)N[C@]1(C)CCCCCCC=CCCC[C@@](C)(C(=O)N[C@@H](Cc2c[nH]cn2)C(=O)N[C@@H](Cc2ccc(O)cc2)C(=O)N[C@H](C(N)=O)C(C)C)NC(=O)[C@H]([C@@H](C)CC)NC(=O)[C@H](Cc2ccccc2)NC(=O)[C@H](C)NC(=O)[C@H](C)NC(=O)[C@H](CCC(N)=O)NC(=O)[C@H](Cc2ccc(O)cc2)NC1=O [FP07868] (Ac-V[Nle]E[R8]YQAAFI[S5]HYV-NH2; staple 4-11) | 10.3 ± 1.4 | 1.2 ± 0.10
CCCC[C@H](NC(=O)[C@@H](NC(C)=O)C(C)C)C(=O)N[C@@H](CCC(N)=O)C(=O)N[C@]1(C)CCCCCCC=CCCC[C@@](C)(C(=O)N[C@@H](Cc2c[nH]cn2)C(=O)N[C@@H](Cc2ccc(O)cc2)C(=O)N[C@H](C(N)=O)C(C)C)NC(=O)[C@H]([C@@H](C)CC)NC(=O)[C@H](Cc2ccccc2)NC(=O)[C@H](C)NC(=O)[C@H](C)NC(=O)[C@H](CCC(N)=O)NC(=O)[C@H](Cc2ccc(O)cc2)NC1=O [FP07871] (Ac-V[Nle]Q[R8]YQAAFI[S5]HYV-NH2; staple 4-11) | 7.0 ± 0.3 | 1.2 ± 0.03
CCCC[C@H](NC(=O)[C@@H](NC(C)=O)C(C)C)C(=O)N[C@@H](CCC(N)=O)C(=O)N[C@]1(C)CCCCCCC=CCCC[C@@](C)(C(=O)N[C@@H](Cc2c[nH]cn2)C(=O)N[C@@H](Cc2ccc(O)cc2)C(=O)N[C@H](C(N)=O)C(C)C)NC(=O)[C@H]([C@@H](C)CC)NC(=O)[C@H](Cc2ccccc2)NC(=O)[C@H](C)NC(=O)[C@H](C)NC(=O)[C@H](CCC(N)=O)NC(=O)[C@H](Cc2ccc(O)cc2)NC1=O [FP07872] (Ac-V[Nle]Q[R8]YQAAFI[S5]HYV-NH2; staple 4-11) | 11.7 ± 1.6 | 1.1 ± 0.02
CC[C@H](C)[C@H](NC(=O)[C@H](Cc1ccc(O)cc1)NC(=O)[C@H](CCC(N)=O)NC(=O)[C@]1(C)CCCC=CCCCCCC[C@@](C)(NC(=O)[C@H](Cc2c[nH]cn2)NC(=O)[C@@H](NC(=O)[C@@H](NC(C)=O)[C@@H](C)CC)[C@@H](C)CC)C(=O)N[C@@H](Cc2ccc(O)cc2)C(=O)N[C@@H](CCC(=O)O)C(=O)N[C@@H](C)C(=O)N[C@@H](C)C(=O)N[C@@H](Cc2ccccc2)C(=O)N[C@@H](Cc2ccccc2)C(=O)N1)C(N)=O [FP08011] (Ac-IIH[R8]YEAAFF[S5]QYI-NH2; staple 4-11) | 6.5 ± 0.5 | 1.2 ± 0.01
